Reference: patent publication US20260297129A1, “PEPTIDES AS SELECTIVE IL-23 RECEPTOR INHIBITORS” (SANOFI, priority 2023, published 2026)
Numbered stars: 1 amine (or outer) side, 2 acyl side, 3 side chain; on linkers, the order of the positions; unused ones are H or OH. Bridge positions count the residues as written; N and C are the ends. Square brackets hold non-standard residues; d marks the D form. Peptide text beside a SMILES is read from it. * marks the point of attachment. Lys(Me,(CH2)4NMe(CH2)5CO) = CN(CCCCCC(=O)[*:3])CCCCN(C)CCCC[C@H](N[*:1])C(=O)[*:2]; X2 = O=C(Cc1ccc(-c2ccc(CC(=O)[*:2])cc2)cc1)[*:1]; Trp(7-Me) = Cc1cccc2c(C[C@H](N)C(=O)O)c[nH]c12; Sebacoyl = O=C(CCCCCCCCC(=O)[*:2])[*:1]; NH(CH2)9CO = O=C(CCCCCCCCCN[*:1])[*:2]; 2Nal = N[C@@H](Cc1ccc2ccccc2c1)C(=O)O; Suberoyl = O=C(CCCCCCC(=O)[*:2])[*:1]; d2Nal = N[C@H](Cc1ccc2ccccc2c1)C(=O)O; C12 diacid = O=C(O)CCCCCCCCCCC(=O)*; X1 = O=C(CCCCCCCCCCCCCN[*:1])[*:2]; 3Pal = N[C@@H](Cc1cccnc1)C(=O)O; 12Ado = NCCCCCCCCCCCC(=O)O; AEEEA = NCCOCCOCCOCC(=O)O; Aun = NCCCCCCCCCCC(=O)O; Thp = NC1(C(=O)O)CCOCC1; Me2NCH2CH2 = CN(C)CC*; Aib = CC(C)(N)C(=O)O; Aoc = NCCCCCCCC(=O)O; Sar = CNCC(=O)O

Experiments:
human IL-23R = target: T1, human IL-23R (Homo sapiens, UniProt Q5VWK5); test: Inhibition of IL-23 binding to IL-23R as measured by ELISA (Table 8); details: human IL23 coated 1 μg/ml; human IL-23R-Fc 0.1 μg/ml; 60 min; read-out: Human ELISA IL23/IL23R IC50
T1 sequence (Q5VWK5 24-353 limits assumed): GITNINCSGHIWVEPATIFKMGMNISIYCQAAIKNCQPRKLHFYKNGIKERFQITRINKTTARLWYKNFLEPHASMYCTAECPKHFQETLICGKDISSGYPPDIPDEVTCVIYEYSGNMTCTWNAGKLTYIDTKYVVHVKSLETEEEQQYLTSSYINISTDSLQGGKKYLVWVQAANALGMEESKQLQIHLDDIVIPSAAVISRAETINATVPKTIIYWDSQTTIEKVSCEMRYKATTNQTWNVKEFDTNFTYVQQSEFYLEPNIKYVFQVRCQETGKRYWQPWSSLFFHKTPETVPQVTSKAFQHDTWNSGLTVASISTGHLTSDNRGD
Description: Antagonism of compounds for human interleukin-23 receptor inhibitors, was determined by an ELISA assay.
A 384-well plate was coated with 50 μl/well of human IL23 at a final concentration of 1 μg/ml and incubated overnight at 4° C. The wells were washed 3 times with 80 μl wash buffer and blocked with 80 μl blocking buffer for 60 minutes at room temperature and washed again. 20 μl of serially diluted test peptides was added to each well and subsequently 20 μl of recombinant human IL-23R-Fc chimera at final concentration of 0.1 μg/ml. The plate was incubated for 60 minutes at room temperature. After the wells were washed, bound IL23R-Fc was detected with goat anti-hu-IgG1-HRP antibody. Signals were visualized with QUANTABLU fluorogenic peroxidase substrate.

[1] = Protease stability in simulated gastric fluids (FaSSGF) (Table 7); assay type: in vitro ADME; details: fassgf with pepsin, 60 min, 37° C., read-out: Remaining percentage of peptide compound, FaSSGF 60 (min)
In short: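 Peptides at 1 μM final were incubated at 37 °C in simulated gastric fluid with pepsin (320 mg per 100 mL SGF concentrate). Samples were quenched with ethanol (0.1% HCOOH) at 0, 60, 120 and 240 min and analysed by LC-MS/MS. Percent remaining is the peak area relative to T0 (100%).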

Row | IC50 (human IL-23R) [nM] | remaining at 1 h, 1 µM [1] [%] | SMILES
1 | 0.61 | 104 | Cc1cccc2c(C[C@@H]3NC(=O)CCCCCCC(=O)NCCCC[C@@H](C(=O)N[C@@H](CC(N)=O)C(=O)N[C@@H](Cc4cccnc4)C(=O)N(C)CC(N)=O)NC(=O)C(C)(C)NC(=O)[C@H](Cc4ccc5ccccc5c4)NC(=O)[C@H](Cc4ccc(OCCN(C)C)cc4)NC(=O)C4(CCOCC4)NC(=O)[C@H](CCC(N)=O)NC3=O)c[nH]c12 [compound 12] ([Trp(7-Me)]Q[Thp]Y(Me2NCH2CH2)[2Nal][Aib]KN[3Pal][Sar]-NH2; linker N-7 via Suberoyl)
2 | 2.41 | 6 | Cc1cccc2c(C[C@@H]3NC(=O)CCCCCCCCCCNC(=O)CC[C@@H](C(=O)N[C@@H](CC(N)=O)C(=O)N[C@@H](Cc4cccnc4)C(=O)N(C)CC(N)=O)NC(=O)C(C)(C)NC(=O)[C@H](Cc4ccc5ccccc5c4)NC(=O)[C@H](Cc4ccc(OCCN(C)C)cc4)NC(=O)C4(CCOCC4)NC(=O)[C@H](CC(C)C)NC3=O)c[nH]c12 [compound 7] ([Aun][Trp(7-Me)]L[Thp]Y(Me2NCH2CH2)[2Nal][Aib]EN[3Pal][Sar]-NH2; lactam N-8)
3 | 0.63 | 87 | Cc1cccc2c(C[C@@H]3NC(=O)Cc4ccc(cc4)-c4ccc(cc4)CC(=O)NCCCC[C@@H](C(=O)N[C@@H](CC(N)=O)C(=O)N[C@@H](Cc4cccnc4)C(=O)N(C)CC(N)=O)NC(=O)C(C)(C)NC(=O)[C@H](Cc4ccc5ccccc5c4)NC(=O)[C@H](Cc4ccc(OCCN(C)C)cc4)NC(=O)C4(CCOCC4)NC(=O)[C@H](CCC(N)=O)NC3=O)c[nH]c12 [compound 15] ([Trp(7-Me)]Q[Thp]Y(Me2NCH2CH2)[2Nal][Aib]KN[3Pal][Sar]-NH2; linker N-7 via X2)
4 | 0.32 | 73 | Cc1cccc2c(C[C@@H]3NC(=O)CCCCCCCCCCCNC(=O)CC[C@@H](C(=O)N[C@@H](CC(N)=O)C(=O)N[C@@H](Cc4cccnc4)C(=O)N(C)CC(N)=O)NC(=O)C(C)(C)NC(=O)[C@H](Cc4ccc5ccccc5c4)NC(=O)[C@H](Cc4ccc(OCCN(C)C)cc4)NC(=O)C4(CCOCC4)NC(=O)[C@H](CCC(N)=O)NC3=O)c[nH]c12 [compound 2] ([12Ado][Trp(7-Me)]Q[Thp]Y(Me2NCH2CH2)[2Nal][Aib]EN[3Pal][Sar]-NH2; lactam N-8)
5 | 0.46 | 100 | Cc1cccc2c(C[C@@H]3NC(=O)COCCOCCOCCNC(=O)CC[C@@H](C(=O)N[C@@H](CC(N)=O)C(=O)N[C@@H](Cc4cccnc4)C(=O)N(C)CC(N)=O)NC(=O)C(C)(C)NC(=O)[C@H](Cc4ccc5ccccc5c4)NC(=O)[C@H](Cc4ccc(OCCN(C)C)cc4)NC(=O)C4(CCOCC4)NC(=O)[C@H](CCC(N)=O)NC3=O)c[nH]c12 [compound 14] ([AEEEA][Trp(7-Me)]Q[Thp]Y(Me2NCH2CH2)[2Nal][Aib]EN[3Pal][Sar]-NH2; lactam N-8)
6 | 0.3 | 77 | Cc1cccc2c(C[C@@H]3NC(=O)CCCCCCCCCCCCCNC(=O)CC[C@@H](C(=O)N[C@@H](CC(N)=O)C(=O)N[C@@H](Cc4cccnc4)C(=O)N(C)CC(N)=O)NC(=O)C(C)(C)NC(=O)[C@H](Cc4ccc5ccccc5c4)NC(=O)[C@H](Cc4ccc(OCCN(C)C)cc4)NC(=O)C4(CCOCC4)NC(=O)[C@H](CCC(N)=O)NC3=O)c[nH]c12 [compound 1] ([X1][Trp(7-Me)]Q[Thp]Y(Me2NCH2CH2)[2Nal][Aib]EN[3Pal][Sar]-NH2; lactam N-8)
7 | 0.62 | 98 | Cc1cccc2c(C[C@@H]3NC(=O)CCCCCCCCC(=O)NCCCC[C@@H](C(=O)N[C@@H](CC(N)=O)C(=O)N[C@@H](Cc4cccnc4)C(=O)N(C)CC(N)=O)NC(=O)C(C)(C)NC(=O)[C@H](Cc4ccc5ccccc5c4)NC(=O)[C@H](Cc4ccc(OCCN(C)C)cc4)NC(=O)C4(CCOCC4)NC(=O)[C@H](CCC(N)=O)NC3=O)c[nH]c12 [compound 11] ([Trp(7-Me)]Q[Thp]Y(Me2NCH2CH2)[2Nal][Aib]KN[3Pal][Sar]-NH2; linker N-7 via Sebacoyl)
8 | 0.62 | 80 | Cc1cccc2c(C[C@@H]3NC(=O)CCCCCCCCCCNC(=O)CC[C@@H](C(=O)N[C@@H](CC(N)=O)C(=O)N[C@@H](Cc4cccnc4)C(=O)N(C)CC(N)=O)NC(=O)C(C)(C)NC(=O)[C@@H](Cc4ccc5ccccc5c4)NC(=O)[C@H](Cc4ccc(OCCN(C)C)cc4)NC(=O)C4(CCOCC4)NC(=O)[C@H](CCC(N)=O)NC3=O)c[nH]c12 [compound 4] ([Aun][Trp(7-Me)]Q[Thp]Y(Me2NCH2CH2)[d2Nal][Aib]EN[3Pal][Sar]-NH2; lactam N-8)
9 | 0.55 | 88 | Cc1cccc2c(C[C@@H]3NC(=O)CCCCCCCCCCC(=O)NCCCC[C@@H](C(=O)N[C@@H](CC(N)=O)C(=O)N[C@@H](Cc4cccnc4)C(=O)N(C)CC(N)=O)NC(=O)C(C)(C)NC(=O)[C@H](Cc4ccc5ccccc5c4)NC(=O)[C@H](Cc4ccc(OCCN(C)C)cc4)NC(=O)C4(CCOCC4)NC(=O)[C@H](CCC(N)=O)NC3=O)c[nH]c12 [compound 10] ([Trp(7-Me)]Q[Thp]Y(Me2NCH2CH2)[2Nal][Aib]KN[3Pal][Sar]-NH2; linker N-7 via C12 diacid)
10 | 0.41 | 90 | CC(=O)NCCCC[C@@H]1NC(=O)[C@H](Cc2c[nH]c3c(C)cccc23)NC(=O)[C@@H](NC(C)=O)CCCCN(C)CCCCN(C)CCCC[C@@H](C(=O)N[C@@H](CC(N)=O)C(=O)N[C@@H](Cc2cccnc2)C(=O)N(C)CC(N)=O)NC(=O)C(C)(C)NC(=O)[C@@H](Cc2ccc3ccccc3c2)NC(=O)[C@H](Cc2ccc(OCCN(C)C)cc2)NC(=O)C2(CCOCC2)NC1=O [compound 13]
11 | 0.68 | 100 | CC(=O)NCCCC[C@@H]1NC(=O)[C@H](Cc2c[nH]c3c(C)cccc23)NC(=O)CCCCCN(C)CCCCN(C)CCCC[C@@H](C(=O)N[C@@H](CC(N)=O)C(=O)N[C@@H](Cc2cccnc2)C(=O)N(C)CC(N)=O)NC(=O)C(C)(C)NC(=O)[C@H](Cc2ccc3ccccc3c2)NC(=O)[C@H](Cc2ccc(OCCN(C)C)cc2)NC(=O)C2(CCOCC2)NC1=O [compound 18] ([Trp(7-Me)]K(Ac)[Thp]Y(Me2NCH2CH2)[2Nal][Aib][Lys(Me,(CH2)4NMe(CH2)5CO)]N[3Pal][Sar]-NH2; lactam N-7)
12 | 1.69 | 7 | Cc1cccc2c(C[C@@H]3NC(=O)CCCCCCCCCNC(=O)CC[C@@H](C(=O)N[C@@H](CC(N)=O)C(=O)N[C@@H](Cc4cccnc4)C(=O)N(C)CC(N)=O)NC(=O)C(C)(C)NC(=O)[C@H](Cc4ccc5ccccc5c4)NC(=O)[C@H](Cc4ccc(OCCN(C)C)cc4)NC(=O)C4(CCOCC4)NC(=O)[C@H](CC(C)C)NC3=O)c[nH]c12 [compound 8] ([NH(CH2)9CO][Trp(7-Me)]L[Thp]Y(Me2NCH2CH2)[2Nal][Aib]EN[3Pal][Sar]-NH2; lactam N-8)
13 | 0.94 | 59 | Cc1cccc2c(C[C@@H]3NC(=O)CCCCCCCNC(=O)CC[C@@H](C(=O)N[C@@H](CC(N)=O)C(=O)N[C@@H](Cc4cccnc4)C(=O)N(C)CC(N)=O)NC(=O)C(C)(C)NC(=O)[C@H](Cc4ccc5ccccc5c4)NC(=O)[C@H](Cc4ccc(OCCN(C)C)cc4)NC(=O)C4(CCOCC4)NC(=O)[C@H](CC(C)C)NC3=O)c[nH]c12 [compound 9] ([Aoc][Trp(7-Me)]L[Thp]Y(Me2NCH2CH2)[2Nal][Aib]EN[3Pal][Sar]-NH2; lactam N-8)
